Where “and” joins values, the source holds several entries; their conditions need not be identical. Equal entries are not always repeated.
Legend:
D(2) dopamine receptor [1] = target: T1, D(2) dopamine receptor (Rattus norvegicus, UniProt P61169); assay: Tested for affinity against striatal dopamine autoreceptor (DA) D2 receptors using [3H]spiperone as radioligand in rats.
D(2) dopamine receptor [2] = target: T1, D(2) dopamine receptor; assay: Tested for affinity against cloned mammalian dopamine autoreceptor (DA) D2 receptors expressed in CHO-K1 cells using [3H]spiperone as radioligand; assay type: cell-based
Dopamine receptor = assay: Tested for in vitro binding affinity against cloned mammalian dopamine autoreceptor (DA) receptors expressed in CHO-K1 cells using [3H]U-86170 as radioligand; assay type: cell-based
D(3) dopamine receptor [3] = target: T2, D(3) dopamine receptor (Homo sapiens, UniProt P35462); assay: Tested for in vitro binding affinity against cloned mammalian dopamine autoreceptor (DA) receptors expressed in CHO-K1 cells [3H]-spiperone as radioligand; assay type: cell-based
T2 sequence (P35462 whole entry): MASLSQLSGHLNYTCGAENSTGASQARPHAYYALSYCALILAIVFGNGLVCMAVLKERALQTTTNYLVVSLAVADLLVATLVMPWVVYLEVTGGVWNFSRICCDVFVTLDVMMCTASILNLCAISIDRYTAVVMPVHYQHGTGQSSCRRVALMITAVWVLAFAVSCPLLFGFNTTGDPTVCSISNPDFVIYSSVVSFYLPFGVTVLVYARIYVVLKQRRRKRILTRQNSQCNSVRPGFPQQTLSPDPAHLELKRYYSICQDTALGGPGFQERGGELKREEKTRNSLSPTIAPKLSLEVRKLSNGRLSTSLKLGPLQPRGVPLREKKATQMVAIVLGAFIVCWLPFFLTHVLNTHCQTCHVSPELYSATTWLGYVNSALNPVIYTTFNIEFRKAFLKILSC

D(2) dopamine receptor [4] = target: T3, D(2) dopamine receptor (Homo sapiens, UniProt P14416); assay: biochemical
T3 sequence (P14416 whole entry): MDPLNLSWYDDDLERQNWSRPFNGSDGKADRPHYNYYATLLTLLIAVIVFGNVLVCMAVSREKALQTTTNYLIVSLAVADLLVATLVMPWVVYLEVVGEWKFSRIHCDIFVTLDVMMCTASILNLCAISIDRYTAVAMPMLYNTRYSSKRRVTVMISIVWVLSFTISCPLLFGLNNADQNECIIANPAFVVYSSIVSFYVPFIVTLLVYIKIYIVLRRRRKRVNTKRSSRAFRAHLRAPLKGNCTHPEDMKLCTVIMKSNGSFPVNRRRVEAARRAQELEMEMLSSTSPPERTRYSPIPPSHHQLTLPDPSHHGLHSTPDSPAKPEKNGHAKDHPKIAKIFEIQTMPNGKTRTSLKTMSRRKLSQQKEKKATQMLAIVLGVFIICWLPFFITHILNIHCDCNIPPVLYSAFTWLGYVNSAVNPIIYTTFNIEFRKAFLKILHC
Description: Affinity against recombinant dopamine receptor (DA) D2 expressed in CHO-K1 cells, using [3H]-spiperone as radioligand

Rattus norvegicus [5] = assay: Evaluated for biochemical levels of DOPAC in nonpretreated habituated rats for subcuteneous dose of 100 micro mol/kg in rat striatum; assay type: functional
Rattus norvegicus [6] = assay: Compound is evaluated for DOPA accumulation in reserpine-pretreated habituated rats at 100 micro mol/kg of subcuteneous dose in rat striatum; assay type: functional
Rattus norvegicus [7] = assay: Compound is evaluated for DOPA accumulation in nonpretreated habituated rats for subcuteneous dose of 100 micro mol/kg in rat striatum; assay type: functional
Rattus norvegicus [8] = assay: Compound is evaluated for biochemical accumulation of DOPAC in nonpretreated habituated rats for subcuteneous dose of 100 micro mol/kg in rat striatum; assay type: functional
Rattus norvegicus [9] = assay: Evaluated for locomotor activity in nonpretreated habituated rats at 100 umol/kg of subcuteneous dose; assay type: functional; set-up: unit not given here
Rattus norvegicus [10] = species: Rattus norvegicus; assay: Compound is tested for concomitant ability to antagonize the locomotor activity induced by Di-Pr-5,6-ADTN; assay type: functional
Rattus norvegicus [11] = assay: Compound is evaluated for locomotor activity in reserpine-pretreated habituated rats at 100 umol/kg of subcuteneous dose; assay type: functional
Rattus norvegicus [12] = assay: Effect (60 min after administration of 200 (micro mol/kg) subcuteneous dose on DA release in brain dialysis model of rat striatum; assay type: functional
Rattus norvegicus [13] = assay: Compound is evaluated for locomotor activity in reserpine-pretreated habituated rats for (100 umol/kg) subcuteneous dose; assay type: functional
Rattus norvegicus [14] = assay: Compound is evaluated for DOPA accumulation in reserpine-pretreated habituated rats at 100 umol/kg of subcuteneous dose in rat striatum; assay type: functional
Rattus norvegicus [15] = assay: Compound is evaluated for biochemical levels of DOPAC in nonpretreated habituated rats for subcuteneous dose of 100 umol/kg in rat striatum; assay type: functional
Rattus norvegicus [16] = assay: Compound is evaluated for locomotor activity in reserpine-pretreated habituated rats at 100 micro mol/kg of subcuteneous dose; assay type: functional
Rattus norvegicus [17] = assay: Evaluated for locomotor activity in nonpretreated habituated rats in 100 umol/kg of subcuteneous dose; assay type: functional; set-up: unit not given here
Rattus norvegicus [18] = assay: Compound is evaluated biochemically in reserpine-pretreated habituated rats for (50 micro mol/kg) subcuteneous dose in 5-HTP; assay type: functional
Rattus norvegicus [19] = assay: Evaluated for DOPAC level in nonpretreated habituated rats after subcuteneous dose of 100 micro mol/kg in rat striatum; assay type: functional
Rattus norvegicus [20] = assay: Evaluated biochemically in reserpine-pretreated habituated rats for (100 umol/kg) subcuteneous dose in rat striatum (DOPAacc), Value expressed as counts/30 min; assay type: functional
D(2) dopamine receptor [21] = target: T1, D(2) dopamine receptor
Description: Affinity against striatal dopamine D2 receptors using [3H]spiperone as radioligand in rats.

Rattus norvegicus [22] = assay: Evaluated biochemically in nonpretreated habituated rats for (100 uM/kg) subcuteneous dose, Value expressed as locomotor activity (LMA); assay type: functional
D(3) dopamine receptor [23] = target: D(3) dopamine receptor (Rattus norvegicus, UniProt P19020); assay: Tested for in vitro binding affinity against cloned mammalian dopamine autoreceptor, expressed in CHO-K1 cells, using [3H]spiperone as radioligand; assay type: cell-based
Sequence of D(3) dopamine receptor (Rattus norvegicus, UniProt P19020) (P19020 whole entry): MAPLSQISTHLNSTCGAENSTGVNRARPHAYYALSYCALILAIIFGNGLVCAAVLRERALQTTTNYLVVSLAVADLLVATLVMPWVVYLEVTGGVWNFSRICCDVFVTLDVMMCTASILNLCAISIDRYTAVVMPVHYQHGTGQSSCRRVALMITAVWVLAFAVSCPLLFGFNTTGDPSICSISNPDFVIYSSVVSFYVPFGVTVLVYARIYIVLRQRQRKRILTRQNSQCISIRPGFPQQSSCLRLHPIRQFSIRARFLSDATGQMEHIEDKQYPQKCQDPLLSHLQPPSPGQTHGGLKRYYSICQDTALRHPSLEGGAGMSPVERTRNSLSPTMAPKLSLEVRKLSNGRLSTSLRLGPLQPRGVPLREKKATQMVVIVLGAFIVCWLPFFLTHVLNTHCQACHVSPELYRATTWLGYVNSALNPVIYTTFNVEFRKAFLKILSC

Rattus norvegicus [24] = assay: Evaluated biochemically in reserpine-pretreated habituated rats for (100 umol/kg) subcuteneous dose, Value expressed as locomotor activity (LMA); assay type: functional
Rattus norvegicus [25] = assay: Evaluated for DOPA accumulation (DOPAacc) level in nonhabituated rats after subcuteneous dose (100 uM/kg) in rat striatum; assay type: functional
Rattus norvegicus [26] = assay: Compound is evaluated biochemically in nonhabituated rats for (100 umol/kg) subcuteneous dose, Value expressed as locomotor activity (LMA); assay type: functional
D(2) dopamine receptor [27] = target: T3, D(2) dopamine receptor; assay: biochemical; remark: listed apart in the source
Description: In vitro binding affinity against cloned mammalian dopamine D2 autoreceptor, expressed in CHO-K1 cells, using [3H]U-86170 as radioligand

Rattus norvegicus [28] = assay: Compound is evaluated for DOPAC accumulation in nonpretreated habituated rats after subcuteneous dose of 100 micro mol/kg in rat striatum; assay type: functional
Rattus norvegicus [29] = assay: Compound is evaluated for DOPA accumulation (DOPAacc) level in nonhabituated rats after subcuteneous dose (100 uM/kg) in rat striatum; assay type: functional
D(3) dopamine receptor [30] = target: T2, D(3) dopamine receptor; assay: Tested for in vitro binding affinity against cloned mammalian dopamine D3 receptor, expressed in CHO-K1 cells, using [3H]spiperone as radioligand; assay type: cell-based
Rattus norvegicus [31] = assay: Compound was tested in vivo for its ability to displace DA receptor agonist (Di-Pr-5,6-ADTN) from rat striatal binding sites at 0.25 uM/Kg sc. dose; assay type: functional
Rattus norvegicus [32] = assay: Evaluated biochemically in nonhabituated rats for (100 umol/kg) subcuteneous dose, Value expressed as locomotor activity (LMA); assay type: functional
Rattus norvegicus [33] = species: Rattus norvegicus; assay: Compound was tested in vio for concomitant ability to antagonize the locomotor activity of rat induced by Di-Pr-5,6-ADTN; assay type: functional
Rattus norvegicus [34] = assay: Compound is evaluated for locomotor activity in nonpretreated habituated rats in 50 umol/kg of subcuteneous dose; assay type: functional
Rattus norvegicus [35] = assay: Compound is evaluated for DOPA accumulation in reserpine-pretreated habituated rats at 50 umol/kg of subcuteneous dose in rat striatum; assay type: functional
Rattus norvegicus [36] = assay: Compound is evaluated for locomotor activity in nonpretreated habituated rats in 25 umol/kg of subcuteneous dose; assay type: functional
Rattus norvegicus [37] = assay: Compound is evaluated for DOPA accumulation in reserpine-pretreated habituated rats fat 3.2 micro mol/kg of subcuteneous dose in rat striatum; assay type: functional
Rattus norvegicus [38] = assay: Compound is evaluated for locomotor activity in reserpine-pretreated habituated rats at 3.2 umol/kg) of subcuteneous dose; assay type: functional
Rattus norvegicus [39] = assay: Compound is evaluated biochemically in nonhabituated rats for (0.64 micro mol/kg) subcuteneous dose in rat striatum (DOPAacc); assay type: functional
Rattus norvegicus [40] = assay: Compound is evaluated for locomotor activity in nonhabituated rats at 3.2 umol/kg of subcuteneous dose; assay type: functional
Rattus norvegicus [41] = assay: Effect (60 min after administration of 200 (1.6 micro mol/kg) subcuteneous dose on DA release in brain dialysis model of rat; assay type: functional
Rattus norvegicus [42] = assay: Compound is tested for its ability to displace Di-Pr-5,6-ADTN at […] subcutaneous dose from rat striatal binding sites in vivo; assay type: functional
Rattus norvegicus [43] = assay: Compound is evaluated for locomotor activity in nonhabituated rats at 1.3 micro mol/kg of subcuteneous dose; assay type: functional
Rattus norvegicus [44] = assay: Compound is evaluated DOPA accumulation in nonhabituated rats for (1.3 micro mol/kg) subcuteneous dose in rat striatum; assay type: functional
Rattus norvegicus [45] = assay: Compound is evaluated for locomotor activity in nonpretreated habituated rats at 1.6 micro mol/kg of subcuteneous dose; assay type: functional
Rattus norvegicus [46] = assay: Effect (60 min after administration of 200 (5.3 umol/kg) subcuteneous dose on DA release in brain dialysis model of rat; assay type: functional

T1 sequence (P61169 whole entry): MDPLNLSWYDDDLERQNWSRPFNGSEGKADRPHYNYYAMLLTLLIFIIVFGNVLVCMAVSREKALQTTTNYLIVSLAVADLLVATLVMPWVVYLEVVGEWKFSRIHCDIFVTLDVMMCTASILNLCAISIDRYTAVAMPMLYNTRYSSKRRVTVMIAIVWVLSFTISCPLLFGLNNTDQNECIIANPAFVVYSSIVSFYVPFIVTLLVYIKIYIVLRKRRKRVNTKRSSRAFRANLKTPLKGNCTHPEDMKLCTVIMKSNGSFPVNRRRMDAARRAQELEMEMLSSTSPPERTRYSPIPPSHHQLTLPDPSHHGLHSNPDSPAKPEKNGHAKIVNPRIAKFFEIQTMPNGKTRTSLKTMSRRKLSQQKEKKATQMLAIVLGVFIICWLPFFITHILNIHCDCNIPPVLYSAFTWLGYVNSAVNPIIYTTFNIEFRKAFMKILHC

Compound: CN(C)CCCN1CCC[C@@H](c2cccc(C#N)c2)C1
- Ki (D(2) dopamine receptor [1]): 2.33 µM
- Ki (D(2) dopamine receptor [2]): > 0.217 µM

Compound: CCCc1cccc([C@@H]2CCCN(CCC)C2)c1
- Ki (Dopamine receptor): 0.057 µM
- Ki (D(3) dopamine receptor [3]): 0.086 µM
- Ki (D(2) dopamine receptor [4]): > 0.217 µM
- Ki (D(2) dopamine receptor [1]): 0.392 µM
- Activity (Rattus norvegicus [5]): 181%
- Activity (Rattus norvegicus [6]): 62%
- LMA (Rattus norvegicus [6]): 734
- Activity (Rattus norvegicus [7]): 190%

Compound: CCCN1CCC[C@@H](c2cccc(OS(=O)(=O)C(F)(F)F)c2)C1
- Activity (Rattus norvegicus [8]): 264% and 89%
- LMA (Rattus norvegicus [9]): 290
- Ki (Dopamine receptor): 0.04 µM
- LMA (Rattus norvegicus [10]): 78%
- LMA (Rattus norvegicus [11]): 26
- Activity (Rattus norvegicus [12]): 223%

Compound: CCCN1CCC[C@@H](c2cccc(C=O)c2)C1
- LMA (Rattus norvegicus [9]): 208
- Ki (Dopamine receptor): 0.02 µM
- Ki (D(3) dopamine receptor [3]): 0.083 µM
- Ki (D(2) dopamine receptor [4]): 0.145 µM
- Ki (D(2) dopamine receptor [1]): 1.12 µM
- Activity (Rattus norvegicus [5]): 127%
- LMA (Rattus norvegicus [13]): 5
- Activity (Rattus norvegicus [14]): 92%

Compound: CCCN1CCC[C@@H](c2cccc(OS(=O)(=O)c3ccc(C)cc3)c2)C1
- LMA (Rattus norvegicus [9]): 152
- Activity (Rattus norvegicus [15]): 89%
- Ki (Dopamine receptor): 0.162 µM
- Ki (D(3) dopamine receptor [3]): 0.092 µM
- Ki (D(2) dopamine receptor [4]): > 0.217 µM
- Ki (D(2) dopamine receptor [1]): 1.32 µM

Compound: CCCN1CCC[C@@H](c2cccc(SC)c2)C1
- LMA (Rattus norvegicus [16]): 5
- LMA (Rattus norvegicus [9]): 313
- Ki (Dopamine receptor): 0.049 µM
- Ki (D(3) dopamine receptor [3]): 0.139 µM
- Ki (D(2) dopamine receptor [4]): > 0.217 µM
- Ki (D(2) dopamine receptor [1]): 0.849 µM
- Activity (Rattus norvegicus [5]): 118%
- Activity (Rattus norvegicus [14]): 92%

Compound: C=CCN1CCC2c3cccc(OS(=O)(=O)C(F)(F)F)c3CCC21 (stereo not drawn)
- Ki (Dopamine receptor): 0.125 µM
- Ki (D(3) dopamine receptor [3]): 0.067 µM
- Ki (D(2) dopamine receptor [4]): > 0.217 µM
- Ki (D(2) dopamine receptor [1]): > 0.172 µM
- Activity (Rattus norvegicus [5]): 175%
- Activity (Rattus norvegicus [6]): 92%
- LMA (Rattus norvegicus [17]): 443 and 635
- Activity (Rattus norvegicus [18]): 52%

Compound: CCCN1CCC[C@@H](c2cccc(OC)c2)C1
- Activity (Rattus norvegicus [19]): 149%
- Activity (Rattus norvegicus [20]): 66%
- Ki (D(2) dopamine receptor [21]): 3.44 µM
- Control (Rattus norvegicus [22]): 463%
- Ki (D(2) dopamine receptor [4]): > 0.217 µM
- Ki (D(3) dopamine receptor [23]): 1.33 µM
- Control (Rattus norvegicus [24]): 23%
- Activity (Rattus norvegicus [25]): 131%
- Control (Rattus norvegicus [26]): 160%
- Ki (D(2) dopamine receptor [27]): 0.602 µM

Compound: CCCN1CCC[C@@H](c2cccc(N)c2)C1
- Activity (Rattus norvegicus [20]): 91%
- Ki (D(2) dopamine receptor [21]): 2 µM
- Control (Rattus norvegicus [22]): 113%
- Ki (D(2) dopamine receptor [4]): > 0.217 µM
- Control (Rattus norvegicus [24]): 72%
- Activity (Rattus norvegicus [28]): 128%

Compound: CCCN1CCC[C@@H](c2cccc(OCC(F)(F)F)c2)C1
- Control (Rattus norvegicus [29]): 96%
- Ki (D(2) dopamine receptor [21]): 1.67 µM
- Ki (D(2) dopamine receptor [4]): > 0.217 µM
- Ki (D(3) dopamine receptor [30]): 1.41 µM
- Control (Rattus norvegicus [26]): 90%
- Ki (D(2) dopamine receptor [27]): 0.82 µM

Compound: CCN1CCCC1CNC(=O)c1c(OC)ccc(Br)c1OC (single isomer, unassigned) [REMOXIPRIDE]
- Activity (Rattus norvegicus [19]): 313%
- Activity (Rattus norvegicus [20]): 104%
- Control (Rattus norvegicus [31]): 48%
- Control (Rattus norvegicus [24]): 5%
- Activity (Rattus norvegicus [25]): 411%
- Locomotor activity (% of control) (Rattus norvegicus [32]): 60%
- LMA (Rattus norvegicus [33]): 91%

Compound: CCCN1CCCC2c3cccc(OS(=O)(=O)C(F)(F)F)c3CCC21 (stereo in doubt; 46)
- Ki (Dopamine receptor): 0.021 µM
- Ki (D(3) dopamine receptor [3]): 0.022 µM
- Ki (D(2) dopamine receptor [4]): > 0.217 µM
- Ki (D(2) dopamine receptor [1]): 0.064 µM
- Activity (Rattus norvegicus [5]): 263%
- LMA (Rattus norvegicus [34]): 211
- Activity (Rattus norvegicus [6]): 62%
- Activity (Rattus norvegicus [35]): 85%
- LMA (Rattus norvegicus [17]): 200

Compound: CN1CCc2cccc3c2[C@H]1Cc1ccc(O)c(O)c1-3 [APOMORPHINE]
- LMA (Rattus norvegicus [36]): 491
- Activity (Rattus norvegicus [37]): 20%
- LMA (Rattus norvegicus [38]): 366
- Activity (Rattus norvegicus [5]): 65%
- Activity (Rattus norvegicus [39]): 53%
- LMA (Rattus norvegicus [40]): 277
- Activity (Rattus norvegicus [41]): 37%

Compound: O=C(CCCN1CCC(O)(c2ccc(Cl)cc2)CC1)c1ccc(F)cc1 [HALOPERIDOL]
- Activity (Rattus norvegicus [42]): 82%
- Activity (Rattus norvegicus [5]): 404%
- LMA (Rattus norvegicus [10]): 7%
- LMA (Rattus norvegicus [43]): 2
- Activity (Rattus norvegicus [44]): 356%
- LMA (Rattus norvegicus [45]): 61
- Activity (Rattus norvegicus [46]): 211%

— ChEMBL document CHEMBL1127438, “Substituted (S)-phenylpiperidines and rigid congeners as preferential dopamine autoreceptor antagonists: synthesis and structure-activity relationships” (J Med Chem, 1994)
